By IC50 is commonly meant the midpoint of a concentration-inhibition curve.

Assay [1] deals with PBMC. As to the kind of experiment: two-step IFNγ ELISpot assay with human PBMC.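 Also: background is unstimulated wells, counts given per 1 million cells, 200,000–250,000 cells per well, restimulated at 37°C, read by Zeiss plate reader, IL-2 and IL-7 fed during pre-culture.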 The format is cell-based. The note with it: 7 d pre-culture with GAD65 peptide pool, 48 h restimulation, triplicate.
The target of assay [2] is T1, DRB1*0701 (Homo sapiens, UniProt P01903+P01911, A100R/A102G/A103Q/D57E/D86V/E43K/F76Y/K127E/L162R/M171V/P40G/Q125H/Q99D/R33Q/R42Y/R54Q/S133A/S66F/T210M/V115G/Y107V/Y59L/Y89S). As to the kind of experiment: biochemical.
Assay [3] addresses DRB1*0101 (Homo sapiens, UniProt P01903+P01911, A100R/D57E/F55L/F60I/F76Y/I96L/L162R/M171V/P40L/Q125E/R42F/V115G/Y59C). As to the kind of experiment: biochemical.
The target of assay [4] is T2, DRB1*1501 (Homo sapiens, UniProt P01903+P01911).
T2 construct: gift: William Kwok, Benaroya Institute, Seattle
In words: competition-based HLA binding assay.

The target in assay [5] is DRB1*0401 (Homo sapiens, UniProt P01903+P01911, A100K/A169T/F76Y/I96L/K127E/L162R/M171V/N62H/P40V/Q125Y/R42H/S133A/S149N/S66Y/V115G/V209L/W38E). The note with it: read-out: DRB1*0401 IC50; competition with biotin-Flu-HA 306–318 at 0.1 μM, 24 h, 37°C; NB = non-binder.
Assay [6] addresses T1, DRB1*0701. The note with it: read-out: DRB1*0701 IC50; competition with biotin-Flu-HA 306–318 at 1 μM, 24 h, 37°C; NB = non-binder.
[7] abbreviates: Negative Control 674 PBMC, Tregitope + (5 μg/mL each human Tregitopes 167 and 289).
Setting [8] is: Negative Control 674 PBMC, Tregitope −.
The mark [9] stands for this setting: Subject D1100H (T1D) PBMC, Tregitope + (5 μg/mL each human Tregitopes 167 and 289).
Where [10] appears, read: Subject D1100H (T1D) PBMC, Tregitope −.
Setting [11] is: Subject D1101H (T1D) PBMC, Tregitope + (5 μg/mL each human Tregitopes 167 and 289).
Where [12] appears, read: Subject D1101H (T1D) PBMC, Tregitope −.
The mark [13] stands for this setting: Subject D1104H (T1D) PBMC, Tregitope + (5 μg/mL each human Tregitopes 167 and 289).
Setting [14] is: Subject D1104H (T1D) PBMC, Tregitope −.
Where [15] appears, read: Subject D1106H (T1D) PBMC, Tregitope + (5 μg/mL each human Tregitopes 167 and 289).
Setting [16] is: Subject D1106H (T1D) PBMC, Tregitope −.
Setting [17] is: Subject D1107H (T1D) PBMC, Tregitope + (5 μg/mL each human Tregitopes 167 and 289).
[18] abbreviates: Subject D1107H (T1D) PBMC, Tregitope −.
Setting [19] is: Negative Control 668 PBMC, Tregitope + (5 μg/mL each human Tregitopes 167 and 289).
[20] abbreviates: Negative Control 668 PBMC, Tregitope −.
The mark [21] stands for this setting: Negative Control 669 PBMC, Tregitope + (5 μg/mL each human Tregitopes 167 and 289).
Setting [22] is: Negative Control 669 PBMC, Tregitope −.
[23] abbreviates: Negative Control 670 PBMC, Tregitope + (5 μg/mL each human Tregitopes 167 and 289).
The mark [24] stands for this setting: Negative Control 670 PBMC, Tregitope −.
Where [25] appears, read: Subject D1105H (T1D) PBMC, Tregitope + (5 μg/mL each human Tregitopes 167 and 289).
The mark [26] stands for this setting: Subject D1105H (T1D) PBMC, Tregitope −.

Read-outs that look alike come from different tables or passages of the source. Marks after values point to notes of the source that are not given here. No end group written: not given here.

As to “GAD65 protein: whole GAD65 protein (Kronus, UK)”, the “IFNγ ELISpot SFC over background” value in assay [1] (setting [7]) is listed as 818 SFC over BG/10^6; in assay [1] (setting [8]), 44 SFC over BG/10^6; in assay [1] (setting [9]) it was 77 SFC over BG/10^6; in assay [1] (setting [10]), 413 SFC over BG/10^6; in assay [1] (setting [11]), 59 SFC over BG/10^6; in assay [1] (setting [12]), 37 SFC over BG/10^6. Also, the “IFNγ ELISpot SFC over background” value in assay [1] (setting [13]) was found to be 69 SFC over BG/10^6; in assay [1] (setting [14]), 32 SFC over BG/10^6; in assay [1] (setting [15]), 591 SFC over BG/10^6; in assay [1] (setting [16]) it was 670 SFC over BG/10^6; in assay [1] (setting [17]) it was 46 SFC over BG/10^6; in assay [1] (setting [18]), 95 SFC over BG/10^6.

With “GAISNMYAMMIARFKMFPEVKEKGM [GAD65_243–267]”, the figures for the IC50 in assay [2], in assay [3] and in assay [4] were 8.7 µM, < 5 µM and < 5 µM, respectively.

As for LGDKVNFFRMVISNPAATHQD [GAD65_550–570], the “IFNγ ELISpot SFC over background” value in assay [1] (setting [19]) is listed as 440 SFC over BG/10^6; in assay [1] (setting [20]) it was 312 SFC over BG/10^6; in assay [1] (setting [21]) it was 30** SFC over BG/10^6; in assay [1] (setting [22]) it was 144 SFC over BG/10^6; in assay [1] (setting [23]), −90 SFC over BG/10^6; in assay [1] (setting [24]), 25 SFC over BG/10^6. Further, the “IFNγ ELISpot SFC over background” value in assay [1] (setting [7]) is 431 SFC over BG/10^6; in assay [1] (setting [8]) it was 490 SFC over BG/10^6; in assay [1] (setting [9]), 141 SFC over BG/10^6; in assay [1] (setting [10]), 199 SFC over BG/10^6; in assay [1] (setting [11]) it was 100 SFC over BG/10^6; in assay [1] (setting [12]) it was 126 SFC over BG/10^6. Further, the “IFNγ ELISpot SFC over background” value in assay [1] (setting [13]) is 101 SFC over BG/10^6; in assay [1] (setting [14]) it was 146 SFC over BG/10^6; in assay [1] (setting [25]) it was 228* SFC over BG/10^6; in assay [1] (setting [26]), 352 SFC over BG/10^6; in assay [1] (setting [15]), 113 SFC over BG/10^6; in assay [1] (setting [16]), 88 SFC over BG/10^6. In addition, the “IFNγ ELISpot SFC over background” value in assay [1] (setting [17]) is listed as 1** SFC over BG/10^6; in assay [1] (setting [18]), 160 SFC over BG/10^6. Moreover, the IC50 in assay [5] is < 25 µM.

Consider “NMFTYEIAPVFVLLEYVTLKKMRE [GAD65_203–226]”, for which the “IFNγ ELISpot SFC over background” value in assay [1] (setting [19]) was 460 SFC over BG/10^6; in assay [1] (setting [20]), 475 SFC over BG/10^6; in assay [1] (setting [21]), 52 SFC over BG/10^6; in assay [1] (setting [22]), 109 SFC over BG/10^6; in assay [1] (setting [23]) it was 82** SFC over BG/10^6; in assay [1] (setting [24]) it was 329 SFC over BG/10^6. Besides, the “IFNγ ELISpot SFC over background” value in assay [1] (setting [7]) is reported as 109 SFC over BG/10^6; in assay [1] (setting [8]) it was 168 SFC over BG/10^6; in assay [1] (setting [11]) it was 51 SFC over BG/10^6; in assay [1] (setting [12]), 157 SFC over BG/10^6; in assay [1] (setting [13]), 154 SFC over BG/10^6; in assay [1] (setting [14]) it was 221 SFC over BG/10^6. The “IFNγ ELISpot SFC over background” value in assay [1] (setting [25]) was 138* SFC over BG/10^6; in assay [1] (setting [26]), 245 SFC over BG/10^6; in assay [1] (setting [15]) it was 138 SFC over BG/10^6; in assay [1] (setting [16]) it was 207 SFC over BG/10^6. The half-inhibitory concentration (IC50) in assay [5] was < 25 µM.

In the case of TTVYGAFDPLLAVAD [GAD65_338–352], the IC50 in assay [6] is > 50 µM; in assay [3], 4.1 µM; in assay [5] it was > 50 µM; in assay [4] (competition with biotin-MBP 84–102 at 0.5 μM, 24 h, 37°C, NB = non-binder, read-out: DRB1*1501 IC50), 31.3 µM.

With VDVFKLWLMWRAKGTTGFEAH [GAD65_450–470], the IC50 is 10.2 µM in assay [2], 25.4 µM in assay [3], > 50 µM in assay [5] and 11.4 µM in assay [4].
